Experimental data from ChEMBL document CHEMBL2010689 (J Med Chem, 2012).
Active and inactive are the calls of the source. The calls are words filed in the database; no cut-off is given here.

Assays:
[1] = Antitumor activity against human U251MG cells xenografted in athymic nude mouse assessed as partial tumor regression at 10 mg/kg, po bid; format: functional, U-251
[2] = Antiangiogenic activity in HMVEC assessed as inhibition of VEGF-induced survival; format: functional, Homo sapiens
Cytochrome P450 2D6 = Cytochrome P450 2D6 (Homo sapiens, UniProt P10635); experiment: Inhibition of CYP2D6; format: ADME
Cytochrome P450 2D6, sequence (P10635 whole entry): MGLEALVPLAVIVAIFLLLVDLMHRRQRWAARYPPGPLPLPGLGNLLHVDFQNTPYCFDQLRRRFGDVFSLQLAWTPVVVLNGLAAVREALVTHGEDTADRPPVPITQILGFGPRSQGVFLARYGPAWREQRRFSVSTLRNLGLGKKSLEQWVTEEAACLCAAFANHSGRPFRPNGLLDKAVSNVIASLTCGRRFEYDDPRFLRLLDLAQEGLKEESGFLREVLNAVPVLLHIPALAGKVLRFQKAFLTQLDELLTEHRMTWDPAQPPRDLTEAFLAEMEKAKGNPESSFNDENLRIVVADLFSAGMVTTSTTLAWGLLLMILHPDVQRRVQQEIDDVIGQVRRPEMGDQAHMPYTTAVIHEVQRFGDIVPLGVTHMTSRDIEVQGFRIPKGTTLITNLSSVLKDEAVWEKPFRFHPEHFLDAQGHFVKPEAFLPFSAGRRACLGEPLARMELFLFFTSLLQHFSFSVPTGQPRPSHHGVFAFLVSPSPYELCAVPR

[3] = target: Adenosine receptor A3 (Homo sapiens) (UniProt P0DMS8); experiment: Inhibition of adenosine A3 receptor at 10 uM
P388 [4] = experiment: Antitumor activity against mouse P388 cells xenografted in DBA/2 mouse assessed as mean survival at 30 mg/kg, po bid for 7 days followed by readministeration after 7 days; format: functional
P388 [5] = experiment: Antitumor activity against mouse P388 cells xenografted in DBA/2 mouse assessed as mean survival at 30 mg/kg, po bid for 7 days followed by readministeration after 14 days; format: functional
[6] = Antiangiogenic activity in HMVEC assessed as inhibition of FGF-induced migration; format: functional; conditions: Homo sapiens
HUVEC [7] = experiment: Antiangiogenic activity in HUVEC assessed as inhibition of VEGF-induced survival; format: functional, cell-based; conditions: Homo sapiens
Aorta [8] = experiment: Antiangiogenic activity in rat aortic rings assessed as inhibition of peak phase microvessel growth; format: functional, tissue-based
[9] = Half life in Sprague-Dawley rat at 5 mg/kg, po; format: ADME, organism-based; design: dose 5 mg/kg, route oral; conditions: in vivo
A-375 [10] = experiment: Antitumor activity against human A375 cells xenografted in athymic nude mouse assessed as complete tumor regression at 1 mg/kg, po bid; format: functional
A-375 [11] = experiment: Antitumor activity against human A375 cells xenografted in po dosed athymic nude mouse assessed as tumor growth inhibition bid measured on day 29 relative to control; format: functional; conditions: A-375, po, 696 h, read-out: MED
[12] = Tmax in Sprague-Dawley rat at 5 mg/kg, po; format: ADME, organism-based; design: dose 5 mg/kg, route oral; conditions: in vivo
[13] = Antitumor activity against human U251MG cells xenografted in athymic nude mouse assessed as tumor growth inhibition at 3 mg/kg, po bid measured on day 29 relative to control; format: functional; conditions: U-251, 696 h, read-out: GI
[14] = Inhibition of CDK at 1 uM
[15] = Tmax in cynomolgus monkey at 3 mg/kg, po; format: ADME, organism-based, Macaca fascicularis; design: dose 3 mg/kg, route oral; conditions: in vivo
Cytochrome P450 2C19 = Cytochrome P450 2C19 (Homo sapiens, UniProt P33261); experiment: Inhibition of CYP2C19; format: ADME
Cytochrome P450 2C19, sequence (P33261 whole entry): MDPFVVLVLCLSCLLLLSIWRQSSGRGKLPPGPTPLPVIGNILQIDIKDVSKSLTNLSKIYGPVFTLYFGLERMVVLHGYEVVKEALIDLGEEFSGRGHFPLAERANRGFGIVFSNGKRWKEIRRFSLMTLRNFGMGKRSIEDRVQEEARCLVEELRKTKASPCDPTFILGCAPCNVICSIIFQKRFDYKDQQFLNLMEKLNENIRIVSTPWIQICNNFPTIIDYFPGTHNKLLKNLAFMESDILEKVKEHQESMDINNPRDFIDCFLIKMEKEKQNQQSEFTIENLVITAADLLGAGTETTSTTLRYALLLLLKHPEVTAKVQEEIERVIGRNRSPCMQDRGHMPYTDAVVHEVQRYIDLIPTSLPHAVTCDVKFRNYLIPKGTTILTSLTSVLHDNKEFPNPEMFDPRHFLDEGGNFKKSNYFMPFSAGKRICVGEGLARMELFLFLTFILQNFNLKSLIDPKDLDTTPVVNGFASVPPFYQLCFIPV

[16] = Terminal half life in cynomolgus monkey at 0.5 mg/kg, iv; format: ADME, organism-based, Macaca fascicularis; design: dose 0.5 mg/kg, route intravenous; conditions: in vivo, read-out: beta t1/2 (converted)
Mus musculus [17] = experiment: Toxicity in athymic nude mouse bearing human U251MG cells assessed as apparent toxicity at 1 to 30 mg/kg, po; format: organism-based, U-251; design: dose 1-30 mg/kg, route oral; conditions: in vivo
HUVEC [18] = experiment: Cytotoxicity against angiopoietin 1-stimulated HUVEC at > = 50 nM; format: cell-based; conditions: human
Aorta [19] = experiment: Cytotoxicity against rat aortic rings; format: tissue-based
A-375 [20] = experiment: Antitumor activity against human A375 cells xenografted in athymic nude mouse assessed as complete tumor regression at 3 mg/kg, po bid; format: functional
[21] = target: Muscarinic acetylcholine receptor M4 (Homo sapiens, UniProt P08173); experiment: Inhibition of muscarinic M4 receptor
Muscarinic acetylcholine receptor M4, sequence (P08173 whole entry): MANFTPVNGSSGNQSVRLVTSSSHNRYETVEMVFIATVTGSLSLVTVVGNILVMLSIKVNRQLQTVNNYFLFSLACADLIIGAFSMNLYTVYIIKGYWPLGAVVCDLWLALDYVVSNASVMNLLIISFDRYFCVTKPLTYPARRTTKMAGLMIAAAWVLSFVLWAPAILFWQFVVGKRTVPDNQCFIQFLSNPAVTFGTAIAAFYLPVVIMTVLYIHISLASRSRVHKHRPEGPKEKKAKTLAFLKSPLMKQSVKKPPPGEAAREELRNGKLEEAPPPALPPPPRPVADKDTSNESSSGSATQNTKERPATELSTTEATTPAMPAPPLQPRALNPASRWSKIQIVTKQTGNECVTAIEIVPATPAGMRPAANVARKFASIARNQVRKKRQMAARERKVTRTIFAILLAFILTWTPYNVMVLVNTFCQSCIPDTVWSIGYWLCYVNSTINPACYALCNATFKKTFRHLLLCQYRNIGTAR

[22] = Inhibition of IRK at 1 uM
A-375 [23] = experiment: Antitumor activity against human A375 cells xenografted in athymic nude mouse assessed as tumor growth inhibition at 3 mg/kg, po bid measured on day 29 relative to control; format: functional; conditions: A-375, 696 h, read-out: GI
Mus musculus [24] = experiment: Toxicity in athymic nude mouse bearing human A375 cells assessed as body weight change at 0.1 to 10 mg/kg, po; format: organism-based, A-375; design: dose 0.1-10 mg/kg, route oral; conditions: in vivo
HUVEC [25] = experiment: Antiangiogenic activity in HUVEC assessed as inhibition of angiopoietin 1-induced chemotaxis at > = 50 nM by boyden chamber assay; format: functional, cell-based; conditions: Homo sapiens
[26] = Inhibition of PDGFR at 1 uM
HUVEC [27] = experiment: Antiangiogenic activity in HUVEC assessed as inhibition of FGF-induced proliferation; format: functional, cell-based; conditions: Homo sapiens
[28] = Apparent permeability across human Caco2 cells; format: ADME, cell-based; conditions: Caco-2
[29] = target: Muscarinic acetylcholine receptor M4 (Homo sapiens) (UniProt P08173); conditions: 10 uM
Muscarinic acetylcholine receptor M4 (Homo sapiens), sequence (P08173 whole entry): as above
Description: Inhibition of muscarinic M4 receptor at 10 uM

Mus musculus [30] = experiment: Toxicity in athymic nude mouse bearing human A375 cells assessed as apparent toxicity at 0.1 to 10 mg/kg, po; format: organism-based, A-375; design: dose 0.1-10 mg/kg, route oral; conditions: in vivo
[31] = Inhibition of JNK at 1 uM
[32] = Cmax in athymic nude mouse tumor xenografted with human U251MG cells at 30 mg/kg, po; format: ADME, organism-based, Neoplasm, U-251; design: dose 30 mg/kg, route oral
[33] = Antiangiogenic activity in BAEC assessed as inhibition of VEGF-induced proliferation; format: functional; conditions: Bos taurus
[34] = Metabolic stability in monkey liver S9 fraction assessed as compound remaining after 2 hrs; format: ADME, subcellular, Macaca mulatta; conditions: rhesus monkey, read-out: Stability
[35] = target: Vascular endothelial growth factor receptor 2 (Homo sapiens, UniProt P35968)
Description: Inhibition of human VEGFR2 expressed in porcine PAE145 cells cotransfected with chimeric rat TRK-A/KDR receptor after 1 hr by immunofluorescence assay

[36] = Volume of distribution in Sprague-Dawley rat at 0.8 mg/kg, iv; format: ADME, organism-based; design: dose 0.8 mg/kg, route intravenous; conditions: in vivo
[37] = Antiangiogenic activity in BAEC assessed as inhibition of FGF-induced migration; format: functional; conditions: Bos taurus
[38] = target: Fibroblast growth factor receptor 1 (Homo sapiens, UniProt P11362); experiment: Inhibition of human FGFR1 using ATP as substrate
Fibroblast growth factor receptor 1, sequence (P11362 whole entry): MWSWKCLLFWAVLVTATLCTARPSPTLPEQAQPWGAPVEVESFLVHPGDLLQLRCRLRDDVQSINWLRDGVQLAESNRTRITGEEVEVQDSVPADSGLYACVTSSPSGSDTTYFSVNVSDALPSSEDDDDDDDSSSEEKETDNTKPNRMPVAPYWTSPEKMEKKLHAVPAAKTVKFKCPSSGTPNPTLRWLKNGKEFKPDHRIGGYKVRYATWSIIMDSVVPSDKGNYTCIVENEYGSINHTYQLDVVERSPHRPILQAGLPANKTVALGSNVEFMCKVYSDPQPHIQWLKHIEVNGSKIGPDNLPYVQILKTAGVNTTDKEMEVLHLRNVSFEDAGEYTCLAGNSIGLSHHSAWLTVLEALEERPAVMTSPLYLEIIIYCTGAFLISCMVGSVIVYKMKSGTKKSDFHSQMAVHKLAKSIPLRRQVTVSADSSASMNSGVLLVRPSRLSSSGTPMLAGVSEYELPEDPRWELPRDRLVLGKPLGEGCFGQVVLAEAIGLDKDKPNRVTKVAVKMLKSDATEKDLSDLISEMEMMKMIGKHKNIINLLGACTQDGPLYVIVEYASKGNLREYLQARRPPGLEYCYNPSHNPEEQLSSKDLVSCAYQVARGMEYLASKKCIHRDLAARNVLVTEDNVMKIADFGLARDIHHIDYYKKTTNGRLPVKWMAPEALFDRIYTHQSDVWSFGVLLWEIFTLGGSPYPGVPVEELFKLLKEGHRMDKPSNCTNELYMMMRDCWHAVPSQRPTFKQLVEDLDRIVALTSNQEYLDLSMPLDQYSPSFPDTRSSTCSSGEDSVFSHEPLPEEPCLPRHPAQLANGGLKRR

P388 [39] = experiment: Antitumor activity against mouse P388 cells xenografted in DBA/2 mouse assessed as mean survival at 30 mg/kg, po qd for 7 days followed by readministeration after 7 days; format: functional
[40] = target: Tyrosine-protein kinase Blk (Mus musculus, UniProt P16277); experiment: Inhibition of mouse BLK using ATP as substrate
Tyrosine-protein kinase Blk, sequence (P16277 whole entry): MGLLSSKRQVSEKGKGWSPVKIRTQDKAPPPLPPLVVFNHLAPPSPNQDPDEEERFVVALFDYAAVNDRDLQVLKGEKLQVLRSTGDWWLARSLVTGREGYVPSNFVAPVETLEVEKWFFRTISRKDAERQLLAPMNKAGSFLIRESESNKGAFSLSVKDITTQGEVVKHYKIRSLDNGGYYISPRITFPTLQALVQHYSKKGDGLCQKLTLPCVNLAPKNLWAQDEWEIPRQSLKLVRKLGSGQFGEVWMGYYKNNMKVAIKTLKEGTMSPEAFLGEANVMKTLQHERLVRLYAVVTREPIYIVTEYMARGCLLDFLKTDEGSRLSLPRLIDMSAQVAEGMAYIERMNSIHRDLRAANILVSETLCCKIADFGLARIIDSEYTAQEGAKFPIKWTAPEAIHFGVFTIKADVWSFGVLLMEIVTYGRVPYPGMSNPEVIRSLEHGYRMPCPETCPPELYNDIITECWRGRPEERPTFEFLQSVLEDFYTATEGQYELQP

A-375 [41] = experiment: Antitumor activity against human A375 cells xenografted in athymic nude mouse assessed as complete tumor regression at 10 mg/kg, po bid; format: functional
[42] = Metabolic stability in dog liver S9 fraction assessed as compound remaining after 2 hrs; format: ADME, subcellular, Canis lupus familiaris; conditions: read-out: Stability
[43] = Oral bioavailability in cynomolgus monkey at 3 mg/kg; format: ADME, organism-based, Macaca fascicularis; conditions: in vivo
[44] = Antitumor activity against human U251MG cells xenografted in po dosed athymic nude mouse assessed as tumor growth inhibition bid measured on day 29 relative to control; format: functional; conditions: U-251, po, 696 h, read-out: MED
[45] = Antiangiogenic activity in BAEC assessed as inhibition of VEGF-induced migration; format: functional; conditions: Bos taurus
A-375 [46] = experiment: Antitumor activity against human A375 cells xenografted in athymic nude mouse assessed as partial tumor regression at 10 mg/kg, po bid; format: functional
Adenosine receptor A2a = Adenosine receptor A2a (Homo sapiens, UniProt P29274); experiment: Inhibition of adenosine A2A receptor
Adenosine receptor A2a, sequence (P29274 whole entry): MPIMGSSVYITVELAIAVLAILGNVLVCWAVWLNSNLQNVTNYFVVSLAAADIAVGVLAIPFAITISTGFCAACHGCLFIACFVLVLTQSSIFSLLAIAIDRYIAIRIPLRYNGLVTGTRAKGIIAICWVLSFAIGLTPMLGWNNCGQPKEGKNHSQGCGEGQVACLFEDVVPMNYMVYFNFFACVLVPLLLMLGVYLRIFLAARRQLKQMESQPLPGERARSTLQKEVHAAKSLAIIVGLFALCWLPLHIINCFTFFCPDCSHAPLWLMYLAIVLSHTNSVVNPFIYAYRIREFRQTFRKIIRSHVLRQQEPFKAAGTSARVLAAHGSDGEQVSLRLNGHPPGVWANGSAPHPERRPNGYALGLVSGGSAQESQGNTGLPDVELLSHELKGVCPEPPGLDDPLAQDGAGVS

[47] = Antitumor activity against human U251MG cells xenografted in athymic nude mouse assessed as tumor growth inhibition at 10 mg/kg, po bid measured on day 29 relative to control; format: functional; conditions: U-251, 696 h, read-out: GI
[48] = target: Insulin-like growth factor 1 receptor (Homo sapiens) (UniProt P08069); experiment: Inhibition of IGFR1 at 1 uM
Insulin-like growth factor 1 receptor (Homo sapiens), sequence (P08069 whole entry, looked up): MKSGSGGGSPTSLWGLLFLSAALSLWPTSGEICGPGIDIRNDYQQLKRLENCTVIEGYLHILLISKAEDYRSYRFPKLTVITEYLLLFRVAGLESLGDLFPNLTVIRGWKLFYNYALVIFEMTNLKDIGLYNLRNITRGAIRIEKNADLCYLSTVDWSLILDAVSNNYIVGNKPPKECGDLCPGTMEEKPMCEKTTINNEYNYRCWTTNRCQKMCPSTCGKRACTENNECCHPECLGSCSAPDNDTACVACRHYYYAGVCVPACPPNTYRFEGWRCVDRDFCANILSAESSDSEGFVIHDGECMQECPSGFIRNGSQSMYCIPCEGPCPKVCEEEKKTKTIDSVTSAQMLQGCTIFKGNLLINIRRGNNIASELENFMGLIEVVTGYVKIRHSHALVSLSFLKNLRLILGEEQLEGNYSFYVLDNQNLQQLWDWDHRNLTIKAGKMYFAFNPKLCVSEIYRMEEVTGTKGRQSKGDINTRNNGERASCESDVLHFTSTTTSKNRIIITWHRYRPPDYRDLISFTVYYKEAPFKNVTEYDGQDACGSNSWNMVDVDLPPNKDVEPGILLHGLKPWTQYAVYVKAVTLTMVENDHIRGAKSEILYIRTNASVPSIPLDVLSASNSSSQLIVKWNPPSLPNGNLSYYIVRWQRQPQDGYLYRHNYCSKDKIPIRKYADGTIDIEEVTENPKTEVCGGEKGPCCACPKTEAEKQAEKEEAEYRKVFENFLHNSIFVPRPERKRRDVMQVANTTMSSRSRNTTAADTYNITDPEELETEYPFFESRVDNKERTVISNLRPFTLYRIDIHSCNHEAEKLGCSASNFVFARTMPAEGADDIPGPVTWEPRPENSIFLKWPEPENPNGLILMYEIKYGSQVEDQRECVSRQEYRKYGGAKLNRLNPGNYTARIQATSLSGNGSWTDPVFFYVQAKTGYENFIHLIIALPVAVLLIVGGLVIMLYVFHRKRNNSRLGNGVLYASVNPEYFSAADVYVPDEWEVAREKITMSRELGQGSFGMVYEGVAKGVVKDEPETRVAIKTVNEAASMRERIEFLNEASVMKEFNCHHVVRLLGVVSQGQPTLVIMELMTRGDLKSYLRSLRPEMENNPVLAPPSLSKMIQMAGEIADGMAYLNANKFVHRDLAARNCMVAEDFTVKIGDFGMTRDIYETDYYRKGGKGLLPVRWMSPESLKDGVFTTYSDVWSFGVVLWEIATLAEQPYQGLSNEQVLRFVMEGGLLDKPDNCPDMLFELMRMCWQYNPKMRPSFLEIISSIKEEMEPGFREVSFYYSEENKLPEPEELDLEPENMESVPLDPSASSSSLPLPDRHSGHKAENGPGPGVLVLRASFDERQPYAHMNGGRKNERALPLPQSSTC

[49] = target: Type-1 angiotensin II receptor (Homo sapiens) (UniProt P30556); experiment: Inhibition of angiotensin AT1 at 10 uM
Type-1 angiotensin II receptor (Homo sapiens), sequence (P30556 whole entry): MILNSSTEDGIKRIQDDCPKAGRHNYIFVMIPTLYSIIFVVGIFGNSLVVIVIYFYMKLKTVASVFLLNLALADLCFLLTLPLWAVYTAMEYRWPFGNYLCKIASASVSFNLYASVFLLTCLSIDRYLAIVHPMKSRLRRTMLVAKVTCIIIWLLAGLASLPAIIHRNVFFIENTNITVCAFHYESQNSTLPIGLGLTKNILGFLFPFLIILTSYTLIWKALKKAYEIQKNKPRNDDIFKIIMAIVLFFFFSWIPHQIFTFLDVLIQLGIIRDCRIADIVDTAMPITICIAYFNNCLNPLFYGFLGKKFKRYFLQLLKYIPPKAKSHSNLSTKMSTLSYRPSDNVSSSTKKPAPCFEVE

For `CC(C)Cn1c2ccc(Nc3ncccn3)cc2c2c3c(c4c(c21)CCc1nn(C)cc1-4)C(=O)NC3` [CEP-11981], which Activity [1] is on record?
The Activity was 20%.

What about the EC50 [2] of the same compound?
Its EC50 is 8 nM.

And the IC50 (Cytochrome P450 2D6)?
The IC50 was over 30000 nM.

And the inhibition [3]?
Its inhibition is over 80%.

What about the MSD (P388 [4]) of the same compound?
Its MSD is 25 days.

And the MSD (P388 [5])?
Its MSD is 23 days.

What about the EC50 [6] of the same compound?
Its EC50 is 8 nM.

What about the EC50 (HUVEC [7]) of the same compound?
The EC50 was 8 nM.

And the Activity (Aorta [8])?
The Activity was “Dose-dependent effect”.

What about the EC50 (Aorta [8]) of the same compound?
The EC50 was 4 nM.

And the half-life [9]?
Its half-life is 3 h.

What about the Activity (A-375 [10]) of the same compound?
The Activity was 20%.

And the minimal effective dose (A-375 [11])?
The minimal effective dose was 0.3 mg/kg.

And the Tmax [12]?
The Tmax was 2 h.

What about the inhibition in vivo at 3 mg/kg [13] of the same compound?
Its inhibition in vivo at 3 mg/kg is 61%.

What about the inhibition [14] of the same compound?
The inhibition was “Active”.

What about the Tmax [15] of the same compound?
The Tmax was 2 h.

And the IC50 (Cytochrome P450 2C19)?
Its IC50 is 9000 nM.

And the half-life [16]?
Its half-life is 1.7 h.

And the Activity (Mus musculus [17])?
Its Activity is “Non-toxic”.

What about the Activity (HUVEC [18]) of the same compound?
The Activity was “Non-toxic”.

What about the Activity (Aorta [19]) of the same compound?
Its Activity is “Non-toxic”.

And the Activity (A-375 [20])?
The Activity was 22%.

And the Ki [21]?
The Ki was 2900 nM.

And the inhibition [22]?
The inhibition was “Active”.

And the inhibition in vivo at 3 mg/kg (A-375 [23])?
The inhibition in vivo at 3 mg/kg was 90%.

What about the Activity (Mus musculus [24]) of the same compound?
The Activity was “Non-toxic”.

And the Activity (HUVEC [25])?
The Activity was “Active”.

What about the inhibition [26] of the same compound?
Its inhibition is “Active”.

And the EC50 (HUVEC [27])?
Its EC50 is 8 nM.

What about the Papp [28] of the same compound?
The Papp was over 4 ×10⁻⁶ cm/s.

What about the inhibition [29] of the same compound?
Its inhibition is over 80%.

What about the Activity (Mus musculus [30]) of the same compound?
Its Activity is “Non-toxic”.

And the inhibition [31]?
The inhibition was “Active”.

And the Cmax [32]?
The Cmax was 401 ng/g.

And the EC50 [33]?
Its EC50 is 8 nM.

And the remaining at 2 h [34]?
The remaining at 2 h was 54%.

What about the IC50 [35] of the same compound?
Its IC50 is under 10 nM.

What about the Vd [36] of the same compound?
Its Vd is 1.3 L/kg.

What about the EC50 [37] of the same compound?
Its EC50 is 8 nM.

And the IC50 [38]?
The IC50 was 13 nM.

And the MSD (P388 [39])?
Its MSD is 18.5 days.

And the IC50 [40]?
The IC50 was 8 nM.

And the Activity (A-375 [41])?
The Activity was 40%.

What about the remaining at 2 h [42] of the same compound?
Its remaining at 2 h is 65%.

What about the bioavailability [43] of the same compound?
Its bioavailability is 93%.

What about the minimal effective dose [44] of the same compound?
The minimal effective dose was 3 mg/kg.

What about the EC50 [45] of the same compound?
The EC50 was 8 nM.

And the Activity (A-375 [46])?
The Activity was 50%.

And the Ki (Adenosine receptor A2a)?
The Ki was 500 nM.

What about the inhibition in vivo at 10 mg/kg [47] of the same compound?
The inhibition in vivo at 10 mg/kg was 75%.

What about the inhibition [48] of the same compound?
The inhibition was “Active”.

What about the inhibition [49] of the same compound?
The inhibition was over 80%.
